Laboratory results from patent US20260193250A1, “TOLL-LIKE RECEPTOR 7 AGONISTS AS IMMUNE-STIMULATORS TO ELICIT THE INNATE ANTITUMOR IMMUNITY” (Merck Patent GmbH, priority 2022, published 2026).

target: T1, hTLR7 (Homo sapiens, UniProt Q9NYK1); experiment: TLR7 reporter assay in HEK-Blue cells (SEAP, Quanti-Blue); format: cell-based; settings: 24 hours incubation, SEAP absorbance at 620 nm
T1 construct: host or cells: HEK-Blue hTLR7 (HEK293-derived SEAP reporter cells)
T1 sequence (Q9NYK1 27-1049): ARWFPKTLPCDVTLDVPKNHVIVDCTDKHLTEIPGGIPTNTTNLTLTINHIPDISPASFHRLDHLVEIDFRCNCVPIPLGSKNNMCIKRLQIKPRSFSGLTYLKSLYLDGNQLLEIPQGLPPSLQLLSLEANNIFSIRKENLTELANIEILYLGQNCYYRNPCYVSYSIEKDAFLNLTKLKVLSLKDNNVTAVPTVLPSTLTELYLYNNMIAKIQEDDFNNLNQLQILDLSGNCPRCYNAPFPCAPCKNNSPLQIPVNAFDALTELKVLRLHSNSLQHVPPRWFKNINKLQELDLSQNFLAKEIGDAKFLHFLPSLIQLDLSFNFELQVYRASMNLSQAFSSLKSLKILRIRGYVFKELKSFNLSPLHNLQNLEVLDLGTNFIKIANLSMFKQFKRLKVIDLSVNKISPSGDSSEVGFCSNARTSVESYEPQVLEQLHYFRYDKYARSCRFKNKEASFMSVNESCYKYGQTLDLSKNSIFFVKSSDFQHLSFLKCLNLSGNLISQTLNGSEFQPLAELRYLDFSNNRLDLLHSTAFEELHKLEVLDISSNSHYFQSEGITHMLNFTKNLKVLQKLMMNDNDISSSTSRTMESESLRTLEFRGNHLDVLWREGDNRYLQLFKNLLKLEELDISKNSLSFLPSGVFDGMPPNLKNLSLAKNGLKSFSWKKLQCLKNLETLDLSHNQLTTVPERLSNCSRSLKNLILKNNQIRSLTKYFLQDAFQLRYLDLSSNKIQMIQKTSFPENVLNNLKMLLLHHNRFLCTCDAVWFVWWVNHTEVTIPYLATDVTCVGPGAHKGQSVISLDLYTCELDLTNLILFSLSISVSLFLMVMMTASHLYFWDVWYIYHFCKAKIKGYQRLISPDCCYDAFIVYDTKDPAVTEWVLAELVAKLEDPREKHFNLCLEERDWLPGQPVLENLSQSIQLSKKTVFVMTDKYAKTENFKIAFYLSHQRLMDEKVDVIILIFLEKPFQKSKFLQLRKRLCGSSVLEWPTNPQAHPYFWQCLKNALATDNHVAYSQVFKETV
Description: HEK-Blue™ TLR7 and TLR8 cell lines were obtained from InvivoGen (San Diego, CA, USA). HEK-Blue cells were cultured in DMEM medium hi glucose (Gibco-10569010) supplemented with 10% HI-FBS (Aus origin) (Gibco-10100-147), 1% penicillin/streptomycin (Gibco-15140-122-100 ml) as per manufacturer's recommendation. In addition, specific antibiotic mixtures were added to the culture. 100 μg/ml Zeocin (11006-33-0), 10 μg/ml Blasticidin (ant-bl-05), 50 μg/ml Normocin (ANT-NR-1-500 MG) for HEK-Blue™ hTLR7 and 100 μg/ml Zeocin, 30 μg/ml Blasticidin, 50 μg/ml Normocin for HEK-Blue™ hTLR8 cells (all from InvivoGen).
All the compounds were prepared in 100% DMSO (Sigma-D2650). The compounds were serially diluted in 100% DMSO (3 fold) up to 10 point dose response curve starting with 30 μM; final concentration of DMSO in the plate was 0.3%. Resiquimod and TL8-506 (InvivoGen-tlrl-t18506) were used as controls. 0.3% DMSO and 10 μM Resiquimod were used as min and max respectively, and % activation was calculated using following formula:
% Activation: {100−(max absorbance−absorbance)/(max absorbance−min absorbance)}×100.
For stimulation with TLR7/8 agonists, cells were resuspended in complete media and 40 μl of cell suspension (10,000 cells/well) was seeded on day 1 in 384 well assay plate (Thermo Scientific™ Nunc-164688) having pre-dispensed compounds with Echo Liquid handler. The plate was spun at 100 g for 1 min to settle down the cells and incubated at 37° C. with 5% CO2 for 24 hours. For measuring production of SEAP after 24 hrs of incubation, 10 μl of Quanti-Blue™ solution (InvivoGen rep-qbs2) prepared according to manufacturer's instructions was added in dark to the assay plate and incubated at 37° C. with 5% CO2 for 30 min. Post incubation, the absorbance was measured at 620 nm in Tecan spark (Spark control Magellan). EC50 were determined using Graph Pad Prism Statistical software (Version 7.05), with individual data points represent the absorbance values of duplicates.

| Compound | EC50 [nM] |
| --- | --- |
| CCOCc1nc2c(N)nc3ccccc3c2n1CC(C)(C)OCCCN1CCN(C)CC1 [Example 2] | 10 to 100 |
| CCOCc1nc2c(N)nc3ccccc3c2n1CC(C)(C)OCCCCN1CCN(C)CC1 [Example 3] | < 10 |
| CCOCc1nc2c(N)nc3ccccc3c2n1CC(C)(C)OCCCCCN1CCN(C)CC1 [Example 4] | < 10 |
| CCOCc1nc2c(N)nc3ccccc3c2n1CC(C)(C)OCCCCN1CCOCC1 [Example 7] | 10 to 100 |
| CCOCc1nc2c(N)nc3ccccc3c2n1CC(C)(C)OCCCCN1CCCCC1 [Example 8] | 10 to 100 |
| CCOCc1nc2c(N)nc3ccccc3c2n1CC(C)(C)OCCCCN1CCCC1 [Example 9] | 10 to 100 |
| CCOCc1nc2c(N)nc3ccccc3c2n1CC(C)(C)OCCCCN1CCNCC1 [Example 10] | 10 to 100 |
| CCOCc1nc2c(N)nc3ccccc3c2n1CC(C)(C)OCCCCN1CCN(CCN)CC1 [Example 11] | 100 to 1000 |
| CCOCc1nc2c(N)nc3ccccc3c2n1CC(C)(C)OCCCCn1cc(CO)nn1 [Example 13] | 10 to 100 |
| CCOCc1nc2c(N)nc3ccccc3c2n1CC(C)(C)OCCCCn1cc(CN)nn1 [Example 14] | 10 to 100 |
| CCNCc1nc2c(N)nc3ccccc3c2n1CC(C)(C)OCCCCN1CCN(C)CC1 [Example 18] | 1000 to 10000 |
| CCOCc1nc2c(N)nc3ccccc3c2n1CC(C)(C)OC(=O)CN [Example 19] | 100 to 1000 |
| CCOCc1nc2c(N)nc3ccccc3c2n1CC(C)(C)OCCCCN1CCN(CC(C)(C)SC)CC1 [Example 27] | 10 to 100 |
